Reactivity for butanethiol, preference between nucleophiles and reactivity with nucleophiles data for 3 compounds are collected here from US20220251085A1, “CYSTEINE BINDING COMPOSITIONS AND METHODS OF USE THEREOF” (University of Virginia Patent Foundation, priority 2019, published 2022).

The nature of series [1]: HPLC assay for profiling solution reactivity and stability of purine inhibitors. The series is classed as physicochemical. Particulars: N7 versus N9 tautomer, on ice 6 h. As to the method:
HPLC assay for profiling solution reactivity and stability of purine inhibitors—The following reagents were prepared and stored on ice prior to use. 0.1 M solution of caffeine in acetonitrile, 1.0 M solution of amino acid mimetic (butanethiol), tetramethylguanidine (TMG), 1 M HOAc in ACN and 10 mM solution of purine fragment in ACN mixture. 500 μL of fragment solution were transferred to a dram vial on ice. To the mixture, 5.5 μL of TMG and 5.5 μL of respective amino acid mimetic were added and solutions were stirred on ice for 6 h. To monitor reactivity, 50 μL aliquots were removed at indicated time points and quenched with 10 μL of a 1:1 mixture of caffeine and HOAc. Samples were injected (1 μL) and analyzed by reverse-phase HPLC on a Shimadzu 1100 Series spectrometer (Shimadzu Corporation, Kyoto, Japan) with UV detection at 254 nm. Reaction progress was evaluated by monitoring consumption of starting material (purine fragment) normalized to caffeine standard. Chromatographic separation was performed using a Phenomenex Kinetex C18 column (2.6 μm, 50×4.6 mm; Phenomenex, Torrance, Calif., United States of America). Mobile phases A and B were composed of H2O+0.1% HOAc and ACN+0.1% HOAc, respectively. […] All purine fragment peak AUCs used for calculations were normalized to caffeine standard AUCs at respective time points to account for run-to-run variations by HPLC. […]

A short description of series [2]: HPLC assay for profiling solution reactivity and stability of purine adduct fragments. Format: physicochemical. As to the method: HPLC assay for profiling solution reactivity and stability of purine adduct fragments: The following reagents were prepared and stored on ice prior to use. 0.1 M solution of caffeine in acetonitrile, 1.0 M solution of amino acid mimetic (butanethiol, n-butylamine, p-cresol, propionamide and butyric acid), tetramethylguanidine (TMG), 1 M HOAc in ACN and 10 mM solution of purine fragment (e.g., one of the purine adducts shown in Scheme 8, above) in ACN mixture. 500 μL of fragment solution (i.e. purified Pa-1 through Pa-6) were transferred to a dram vial on ice. To the mixture, 5.5 μL of TMG and 5.5 μL of respective amino acid mimetic were added and solutions were stirred on ice for 6 h. To monitor reactivity, 50 μL aliquots were removed at indicated time points and quenched with 10 μL of a 1:1 mixture of caffeine and HOAc. Samples were injected (1 μL) and analyzed by reverse-phase HPLC on a Shimadzu 1100 Series spectrometer with UV detection at 254 nm. Reaction progress was evaluated by monitoring consumption of starting material (purine fragment) normalized to caffeine standard. Chromatographic separation was performed using a Phenomenex Kinetex C18 column (2.6 μm, 50×4.6 mm). Mobile phases A and B were composed of H2O+0.1% HOAc and ACN+0.1% HOAc, respectively. […] All purine fragment peak AUCs used for calculations were normalized to caffeine standard AUCs at respective time points to account for run-to-run variations by HPLC. The amount of purine fragment consumed (% starting material) was plotted as a function of time.

In the case of `O=S(=O)(c1ccc(F)cc1)n1cnc2c(Cl)nc(Cl)nc21` [Pi-14, 2,6-dichloro-9-((4-fluorophenyl)sulfonyl)-9H-purine], the reactivity for butanethiol entry in series [1] is given as “essentially equivalent reactivity”.
On to `C#CCn1cnc2c(Cl)nc(SCCCC)nc21` [Pa-3, 2-(butylthio)-6-chloro-9-(prop-2-yn-1-yl)-9H-purine], for which the preference between nucleophiles entry in series [2] (butanethiol versus p-cresol) is given as “preference for butanethiol”. The reactivity with nucleophiles result in series [2] (on ice 6 h) is “mild reactivity”.
Turning to `O=S(=O)(c1ccc(F)cc1)n1cnc2nc(Cl)nc(Cl)c21` [Pi-13, 2,6-dichloro-7-((4-fluorophenyl)sulfonyl)-7H-purine], the reactivity for butanethiol result in series [1] is “essentially equivalent reactivity”.
